The values below come from US20240277796A1, “METHODS FOR INHIBITING RAS” (Revolution Medicines, Inc., priority 2021, published 2024).

Each structure is given as a SMILES string.

The target in experiment [1] is K-Ras G13C (Homo sapiens, UniProt P01116, G13C). Briefly: Raf-Ras (FRET or MOA) binding assay: disruption of BRAF RBD interaction with K-Ras G13C. Particulars: with Cyclophilin A, TR-FRET; read-out: IC50 in the Raf-Ras (FRET or MOA) binding assay re: K-Ras G13C. From the text: Disruption of B-Raf Ras-Binding Domain (BRAF^RBD) Interaction with K-Ras by Compounds of the Invention (Also Called a FRET Assay or an MOA Assay)
Sequence of K-Ras G13C (P01116 1-188 isoform P01116-2 G13C): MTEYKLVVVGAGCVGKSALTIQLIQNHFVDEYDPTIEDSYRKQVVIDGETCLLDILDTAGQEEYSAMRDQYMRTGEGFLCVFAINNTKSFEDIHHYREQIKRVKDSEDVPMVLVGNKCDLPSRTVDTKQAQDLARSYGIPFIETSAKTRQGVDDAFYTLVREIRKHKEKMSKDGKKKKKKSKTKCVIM
Sequence of K-Ras G13C (P62937 whole entry partner, the tested form may be a part): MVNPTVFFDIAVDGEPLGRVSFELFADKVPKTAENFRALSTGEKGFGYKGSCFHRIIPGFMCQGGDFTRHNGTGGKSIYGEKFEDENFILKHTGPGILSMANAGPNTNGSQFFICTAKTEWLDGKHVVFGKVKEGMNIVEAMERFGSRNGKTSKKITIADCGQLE
Note—The following protocol describes a procedure for monitoring disruption of K-Ras G12C (GMP-PNP) binding to BRAF^RBD by a compound of the invention. This protocol may also be executed substituting other Ras proteins or nucleotides.
The purpose of this biochemical assay was to measure the ability of test compounds to facilitate ternary complex formation between a nucleotide-loaded K-Ras isoform and Cyclophilin A; the resulting ternary complex disrupts binding to a BRAF^RBD construct, inhibiting K-Ras signaling through a RAF effector. Data was reported as IC50 values.
In assay buffer containing 25 mM HEPES pH 7.3, 0.002% Tween20, 0.1% BSA, 100 mM NaCl and 5 mM MgCl2, tagless Cyclophilin A, His 6-K-Ras-GMPPNP, and GST-BRAF^RBD were combined in a 384-well assay plate at final concentrations of 25 μM, 12.5 nM and 50 nM, respectively. Compound was present in plate wells as a 10-point 3-fold dilution series starting at a final concentration of 30 μM. […] TR-FRET signal was read on a microplate reader (Ex 320 nm, Em 665/615 nm). […]

For experiment [2], the system named is SW1573. Particulars: Canon et al., Nature 575:217-223 (2019); cited from earlier work.
Experiment [3] has as its system SW1573. To be noted: Canon et al., Nature 575:217-223 (2019); cited from earlier work. The source holds these as a separate data set.
In experiment [4] the test system is AsPC-1 (K-Ras G12D). The experiment can be described thus: pERK potency assay, AsPC-1. It is filed as cell-based. Particulars: Homo sapiens, ASPC1, read-out: IC50 in the pERK potency assay with respect to AsPC-1 (K-Ras G12D). From the text:
The purpose of this assay was to measure the ability of test compounds to inhibit K-Ras in cells. Activated K-Ras induces increased phosphorylation of ERK at Threonine 202 and Tyrosine 204 (pERK). This procedure measures a decrease in cellular pERK in response to test compounds. The procedure described below in NCI-H358 cells is applicable to K-Ras G12C.
Note: This protocol may be executed substituting other cell lines to characterize inhibitors of other RAS variants, including, for example, AsPC-1 (K-Ras G12D), Capan-1 (K-Ras G12V), or NCI-H1355 (K-Ras G13C).
NCI-H358 cells were grown and maintained using media and procedures recommended by the ATCC. On the day prior to compound addition, cells were plated in 384-well cell culture plates (40 μl/well) and grown overnight in a 37° C., 5% CO2 incubator. Test compounds were prepared in 10, 3-fold dilutions in DMSO, with a high concentration of 10 mM. […]
In some experiments, cellular pERK level was determined using the AlphaLISA SureFire Ultra p-ERK1/2 Assay Kit (PerkinElmer). […] Signal was read on an Envision plate reader (PerkinElmer) using standard AlphaLISA settings. […] Signal was plotted vs. the decadal logarithm of compound concentration, and IC50 was determined by fitting a 4-parameter sigmoidal concentration response model.

Take `CCn1c(-c2cccnc2[C@H](C)OC)c2c3cc(ccc31)-c1cccc(c1)C[C@H](NC(=O)[C@@H](COC1CN(C(=O)C#CC(C)(C)N(C)C)C1)N(C)C)C(=O)N1CCC[C@H](N1)C(=O)OCC(C)(C)C2` (atropisomer, axis not shown) [EA169]: in experiment [1], the IC50 was above 1.5 µM.

As to `CCn1c(-c2cccnc2[C@H](C)OC)c2c3cc(ccc31)N1CCS[C@@H](C[C@H](NC(=O)[C@@H](COC3CN(C(=O)C#CC(C)(C)N(C)C)C3)C(C)C)C(=O)N3CCC[C@H](N3)C(=O)OCC(C)(C)C2)C1` (atropisomer, axis not shown) [EA171], the IC50 in experiment [1] is above 1.5 µM.

`C=CC(=O)N1CCN(c2nc(=O)n(-c3c(C)ccnc3C(C)C)c3nc(-c4c(O)cccc4F)c(F)cc23)[C@@H](C)C1` [AMG510]: in experiment [2], the “sensitivity of cell line SW1573 to the inhibitor” value is “insensitive”. For the same molecule, the “sensitivity of cell line to RAS inhibitor” value in experiment [3] was “insensitive”.

Turning to `CCn1c(-c2cccnc2[C@H](C)OC)c2c3cc(ccc31)-c1csc(n1)C[C@H](NC(=O)[C@H](C1CCCC1)N1CC[C@]3(CCN(C(=O)[C@@]4(C)CN4)C3)C1)C(=O)N1CCC[C@H](N1)C(=O)OCC(C)(C)C2` [FA5], in experiment [4], the IC50 was above 8 µM.

For the molecule `CCn1c(-c2cccnc2[C@H](C)OC)c2c3cc(ccc31)-c1cc(cc(C(F)F)c1)C[C@H](NC(=O)[C@H](C(C)C)N1CC[C@]3(CCN(C(=O)[C@@H]4N[C@@H]4C4CC4)C3)C1)C(=O)N1CCC[C@H](N1)C(=O)OCC(C)(C)C2` [FA17], the IC50 in experiment [4] was above 8 µM.
